These results are taken from ChEMBL document CHEMBL1201862, “PubChem BioAssay data set” (2004).

Test systems include CAKI-1; DMS-273; HCT-116; HL-60; HT-29; K562; KM-20L2; M19-MEL; NCI-H23; OVCAR-3; OVCAR-8; SN12C; SNB-78; SW-620; UACC-62; COLO 205.
Holding throughout (experiment): DTP human tumour cell line panel, 48 h

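A five-concentration, 48-hour dose response in 96-well plates underlies each endpoint, interpolated linearly between surrounding concentrations. Abbreviation: GI50, concentration required for 50% inhibition of growth.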 Active and inactive are the calls of the source. Rule as the data show it: active = GI50 up to about 1.1 µM and inactive = higher. A value given as a limit tells only on which side of the number the result lay.

On to `C[n+]1c2ccccc2c(CNc2ccc(S(=O)(=O)N=C(N)N)cc2)c2ccccc21`, for which the GI50 (in general, the concentration at which growth is held to half of that of the control) is 1.72 µM (inactive) in the assay on CAKI-1; 2.94 µM (inactive) in the assay on DMS-273; 5.78 µM (inactive) in the assay with HCT-116; 1.46 µM (inactive) with HL-60; 20.2 µM (inactive) in the assay with HT-29; 6.78 µM (inactive) in the assay on K562. The GI50 with KM-20L2 was 13.6 µM (inactive); in the assay on M19-MEL it was 14.5 µM (inactive); with NCI-H23, 5.31 µM (inactive); in the assay with OVCAR-3, 19.8 µM (inactive); in the assay with OVCAR-8, 9.66 µM (inactive); in the assay on SN12C, 3.16 µM (inactive). The GI50 was 19.9 µM (inactive) in the assay with SNB-78, 6.95 µM (inactive) with SW-620 and 10.4 µM (inactive) with UACC-62.
Regarding `COC1=CC(C)C2C[C@H]3O[C@H](O)C[C@H]4C(C)C(=O)C(O)C([C@@]2(C)C1=O)[C@@]34C` (some centres undefined), the GI50 in the assay with CAKI-1, in the assay with COLO 205, with DMS-273, in the assay on HCT-116, in the assay with HT-29 and in the assay with K562 was > 100 µM (inactive) in each case. The GI50 with M19-MEL, in the assay with NCI-H23, in the assay on OVCAR-3, in the assay with OVCAR-8, in the assay on SN12C and in the assay with SNB-78 was > 100 µM (inactive) each time. Also, the GI50 with SW-620 and in the assay on UACC-62 was > 100 µM (inactive) each time.
On to `COc1ccc2c3ccc4c(c3n(C)c2c1)C(=O)c1ccccc1C4=O`, for which the GI50 with COLO 205 was 75.2 µM (inactive); in the assay on DMS-273, > 100 µM (inactive); with HCT-116, 30.1 µM (inactive); with HL-60, > 100 µM (inactive); with HT-29, 11.7 µM (inactive); in the assay on K562, > 100 µM (inactive). Further, the GI50 in the assay with KM-20L2 was 39.8 µM (inactive); with M19-MEL, > 100 µM (inactive); in the assay on NCI-H23, > 100 µM (inactive); in the assay with OVCAR-8, 36.9 µM (inactive); with SN12C, > 100 µM (inactive); in the assay with SNB-78 it was > 100 µM (inactive). Besides, the GI50 in the assay with SW-620 was 80.2 µM (inactive); in the assay on UACC-62, > 100 µM (inactive).
For `OCC(O)C(O)C(O)c1nnn[nH]1` (centres undefined), the GI50 with CAKI-1, with COLO 205, in the assay on DMS-273, in the assay on HCT-116, in the assay with HL-60 and with HT-29 was > 100 µM (inactive) each time. In addition, the GI50 in the assay with K562, in the assay on M19-MEL, in the assay on NCI-H23, with OVCAR-3, in the assay on OVCAR-8 and in the assay on SN12C was > 100 µM (inactive) each time. The GI50 in the assay on SNB-78, with SW-620 and in the assay with UACC-62 was > 100 µM (inactive) throughout.
Take `C[C@]12CC[C@H](O)CC1=CC[C@@H]1C2CC[C@]2(C)NC(=O)C(C#N)CC12` (some centres undefined): the GI50 with CAKI-1 is > 100 µM (inactive); in the assay on DMS-273 it was > 100 µM (inactive); with HCT-116 it was > 100 µM (inactive); in the assay with HL-60, > 100 µM (inactive); in the assay with HT-29 it was > 100 µM (inactive); in the assay on K562 it was 6.89 µM (inactive). The GI50 in the assay on KM-20L2, with M19-MEL, in the assay on NCI-H23, in the assay on OVCAR-3, with OVCAR-8 and in the assay with SNB-78 was > 100 µM (inactive) in each case. For the same compound, the GI50 was > 100 µM (inactive) with SW-620 and 15.7 µM (inactive) in the assay on UACC-62.
Consider `CCCCCCCCCCCCCC(=O)CSCCNC(=O)CCNC(=O)[C@@H](O)C(C)(C)COP(=O)(O)OP(=O)(O)OCC1OC(n2cnc3c(N)ncnc32)C(O)C1OP(=O)(O)O` (some centres undefined), for which the GI50 with COLO 205 was 13.1 µM (inactive); in the assay with DMS-273 it was 11.2 µM (inactive); in the assay with HCT-116 it was 15.8 µM (inactive); in the assay on HL-60 it was 20.5 µM (inactive); in the assay on HT-29 it was 18.8 µM (inactive); in the assay on KM-20L2, 19.4 µM (inactive). For the same compound, the GI50 is 18.9 µM (inactive) in the assay with M19-MEL; 18.7 µM (inactive) in the assay on NCI-H23; 38 µM (inactive) in the assay on OVCAR-3; 27.4 µM (inactive) with OVCAR-8; 16.4 µM (inactive) in the assay with SN12C; 15.5 µM (inactive) in the assay with SNB-78. The GI50 in the assay on SW-620 is 19.4 µM (inactive); with UACC-62 it was 15 µM (inactive).
As to `Cc1cc2c(=O)cc(-c3ccc(C(=O)O)cc3)oc2c(C(N)=O)c1C`, the GI50 with COLO 205, in the assay on DMS-273, with HCT-116, in the assay on HT-29, in the assay on K562 and with KM-20L2 was > 100 µM (inactive) throughout. Also, the GI50 with M19-MEL, with NCI-H23, in the assay on OVCAR-3, in the assay on OVCAR-8, in the assay on SN12C and in the assay on SNB-78 was > 100 µM (inactive) in each case. The GI50 in the assay on SW-620 and with UACC-62 was > 100 µM (inactive) in each case.
As for `COc1cc(/C=N/c2nncs2)ccc1O`, the GI50 with CAKI-1, in the assay on DMS-273, in the assay on HCT-116, with HL-60, in the assay with HT-29 and with K562 was > 100 µM (inactive) each time. Also, the GI50 in the assay on KM-20L2, with M19-MEL, with NCI-H23, in the assay with OVCAR-8, in the assay on SN12C and with SNB-78 was > 100 µM (inactive) each time. Moreover, the GI50 in the assay on SW-620 and with UACC-62 was > 100 µM (inactive) each time.
In the case of `O=C(O)CCSC(=O)Nc1ccccc1`, the GI50 with CAKI-1, in the assay on COLO 205, with DMS-273, in the assay on HCT-116, in the assay with HL-60 and in the assay with HT-29 was > 100 µM (inactive) each time. Further, the GI50 with K562, with KM-20L2, with NCI-H23, with OVCAR-3, in the assay with OVCAR-8 and in the assay with SN12C was > 100 µM (inactive) in each case. The GI50 is > 100 µM (inactive) in the assay with SNB-78, 92.9 µM (inactive) with SW-620 and 64.4 µM (inactive) with UACC-62.
For `O=S1(=O)OCCOS(=O)(=O)C1I`, the GI50 in the assay on CAKI-1 was > 100 µM (inactive); with COLO 205, > 100 µM (inactive); in the assay with DMS-273 it was > 100 µM (inactive); in the assay with HCT-116 it was > 100 µM (inactive); in the assay with HL-60, 53.2 µM (inactive); in the assay on HT-29 it was > 100 µM (inactive). For the same compound, the GI50 in the assay with K562, in the assay with M19-MEL, in the assay on NCI-H23, in the assay on OVCAR-3, with OVCAR-8 and in the assay on SN12C was > 100 µM (inactive) in each case. In addition, the GI50 was > 100 µM (inactive) in the assay on SNB-78, > 100 µM (inactive) in the assay on SW-620 and 40.1 µM (inactive) in the assay on UACC-62.
`C[C@H]1NC(=O)C2CCCCN2C(=O)CN(C)C(=O)CNC(=O)C2CCCCN2C(=O)[C@@H](NC(=O)c2nc3ccccc3cc2O)[C@@H](C)NC(=O)C2CCCCN2C(=O)CN(C)C(=O)CNC(=O)[C@@H]2CCCCN2C(=O)C1NC(=O)c1nc2ccccc2cc1O` (some centres undefined): the GI50 is 0.136 µM (active) with CAKI-1; 0.252 µM (active) in the assay on COLO 205; 0.0255 µM (active) with DMS-273; 2.03 µM (inactive) in the assay with HL-60; 0.347 µM (active) in the assay with HT-29; 0.231 µM (active) with K562. The concentration for 50% growth inhibition (GI50) in the assay on KM-20L2 was 0.378 µM (active); with M19-MEL, 0.181 µM (active); in the assay with NCI-H23 it was 0.242 µM (active); in the assay with OVCAR-3 it was 0.209 µM (active); with OVCAR-8 it was 0.193 µM (active); with SN12C, 0.313 µM (active). Besides, the GI50 is 0.0865 µM (active) in the assay on SNB-78, 0.225 µM (active) in the assay with SW-620 and 0.0229 µM (active) in the assay on UACC-62.
On to `CC(C)(C)c1ccc(Oc2ccc(C#N)c(C#N)c2)c(C(C)(C)C)c1`, for which the GI50 in the assay on CAKI-1 was 56.4 µM (inactive); with COLO 205, 28.3 µM (inactive); with DMS-273, 15.2 µM (inactive); in the assay with HCT-116, 24.6 µM (inactive); in the assay with HL-60, 10.4 µM (inactive); with HT-29 it was 34.3 µM (inactive). The GI50 with K562 was 21.2 µM (inactive); with KM-20L2 it was 44 µM (inactive); in the assay with NCI-H23, 43.6 µM (inactive); in the assay on OVCAR-3, 40.1 µM (inactive); in the assay on OVCAR-8 it was 51.4 µM (inactive); with SN12C, 43 µM (inactive). Also, the figures for the GI50 in the assay with SNB-78, in the assay with SW-620 and in the assay with UACC-62 were 42.5 µM (inactive), 49.3 µM (inactive) and 52.1 µM (inactive), respectively.
As for `CCCNCc1nc2ccc(Br)cc2c(=O)n1CCC`, the GI50 in the assay on COLO 205 was 14.6 µM (inactive); with DMS-273 it was 12.4 µM (inactive); in the assay on HCT-116, 9.98 µM (inactive); in the assay on HL-60 it was 6.53 µM (inactive); in the assay with HT-29, 15.1 µM (inactive); with K562, 8.04 µM (inactive). Besides, the GI50 in the assay on KM-20L2 was 19.2 µM (inactive); in the assay on M19-MEL, 13.2 µM (inactive); in the assay with NCI-H23, 13.4 µM (inactive); in the assay with OVCAR-3, 18.4 µM (inactive); in the assay with OVCAR-8, 13.4 µM (inactive); in the assay with SN12C, 13.6 µM (inactive). Further, the figures for the GI50 with SNB-78, with SW-620 and with UACC-62 were 17.5 µM (inactive), 13.7 µM (inactive) and 6.93 µM (inactive), respectively.
